Target: human NAMPT (Homo sapiens (Human), UniProt P43490)
Assay: NMN fluorescence biochemical assay (human recombinant NAMPT enzyme assay)
Outline: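 NMN formed was detected by fluorescence (Ex/Em 355/460 nm) after acetophenone, KOH and formic acid derivatization. The cell-free reaction ran 60 min at ambient temperature with 6 nM human NAMPT, 150 μM nicotinamide, 20 μM PRPP, 2.5 mM ATP, pH 7.2 HEPES, and compound dose responses.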

Chain of human NAMPT (P43490 whole entry): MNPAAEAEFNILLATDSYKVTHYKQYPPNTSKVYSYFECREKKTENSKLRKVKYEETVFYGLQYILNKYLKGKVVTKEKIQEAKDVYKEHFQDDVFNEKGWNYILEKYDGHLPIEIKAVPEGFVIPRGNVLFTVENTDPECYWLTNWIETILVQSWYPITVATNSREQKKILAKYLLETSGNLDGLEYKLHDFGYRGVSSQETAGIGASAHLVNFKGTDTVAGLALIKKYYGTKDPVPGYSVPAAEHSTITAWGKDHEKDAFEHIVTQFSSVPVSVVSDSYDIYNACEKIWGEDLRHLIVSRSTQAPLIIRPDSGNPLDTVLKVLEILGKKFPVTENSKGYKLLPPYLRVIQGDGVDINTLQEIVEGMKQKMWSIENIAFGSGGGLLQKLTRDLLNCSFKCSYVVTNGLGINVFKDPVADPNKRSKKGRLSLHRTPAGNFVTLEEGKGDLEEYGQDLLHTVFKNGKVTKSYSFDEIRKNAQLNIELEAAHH

SMILES | AC1.4 Human | EC50
COc1ccc(COC(=O)Nc2ccc(CN3CCOCC3=O)cc2)cc1 [Compound 174, (4-methoxyphenyl)methyl N-{4-[(3-oxomorpholin-4-yl)methyl]phenyl}carbamate] | 1.47 µM | 28 µM
O=C(Nc1ccc(CNC(=O)c2cncnc2)cc1)OCc1ccc(Cl)cc1 [Compound 175, (4-chlorophenyl)methyl N-{4-[(pyrimidin-5-ylformamido)methyl]phenyl}carbamate] | 1.47 µM | 8.92 µM
CCc1ncoc1C(=O)N(C)Cc1ccc(NC(=O)OCc2ccc(Cl)cc2)cc1 [Compound 176, (4-chlorophenyl)methyl N-(4-{[1-(4-ethyl-1,3-oxazol-5-yl)-N-methylformamido]methyl}phenyl)carbamate] | 1.47 µM | 4.56 µM
CC(C)(O)CN1CCN(Cc2ccc(NC(=O)OCc3ccc(Cl)cc3)cc2)CC1 [Compound 177, 4-chlorobenzyl (4-((4-(2-hydroxy-2-methylpropyl)piperazin-1-yl)methyl)phenyl)carbamate] | 1.49 µM | 38.3 µM
CN1CCN(C(=O)Cc2ccc(NC(=O)OCc3ccc(Cl)cc3)cc2)C2CC21 (stereo not shown) [Compound 178, 4-chlorobenzyl (4-(2-(5-methyl-2,5-diazabicyclo[4.1.0]heptan-2-yl)-2-oxoethyl)phenyl)carbamate] | 1.50 µM | 14.7 µM
CC1(C(=O)NCc2ccc(NC(=O)OCc3ccc(Cl)cc3)cc2)COC1 [Compound 179, (4-chlorophenyl)methyl N-(4-{[(3-methyloxetan-3-yl)formamido]methyl}phenyl)carbamate] | 1.50 µM | 22.4 µM
O=C(Nc1ccc(CN2CC3CC3C2=O)cc1)OCc1ccc(Cl)cc1 (stereo not shown) [Compound 180, (4-chlorophenyl)methyl N-[4-({2-oxo-3-azabicyclo[3.1.0]hexan-3-yl}methyl)phenyl]carbamate] | 1.52 µM | 15.1 µM
CC(C)n1nccc1C(=O)N[C@@H](C)c1ccc(NC(=O)OCc2ccc(Cl)cc2)cc1 [Compound 181, (4-chlorophenyl)methyl N-{4-[(1S)-1-[(2-isopropylpyrazol-3-yl)formamido]ethyl]phenyl}carbamate] | 1.53 µM | 15.6 µM
Cc1nc(C)c(C(=O)N(C)Cc2ccc(NC(=O)OCc3ccc(Cl)cc3)cc2)o1 [Compound 182, (4-chlorophenyl)methyl N-(4-{[1-(2,4-dimethyl-1,3-oxazol-5-yl)-N-methylformamido]methyl}phenyl)carbamate] | 1.54 µM | 11 µM
CC1(C)CCN1C(=O)Cc1ccc(NC(=O)OCc2ccc(Cl)cc2)cc1 [Compound 183, (4-chlorophenyl)methyl N-{4-[2-(2,2-dimethylazetidin-1-yl)-2-oxoethyl]phenyl}carbamate] | 1.57 µM | 15.2 µM
COC1CCN(C(=O)NCc2ccc(NC(=O)OCc3ccc(Cl)cc3)cc2)CC1 [Compound 184, (4-chlorophenyl)methyl N-{4-[(4-methoxypiperidine-1-carbonylamino)methyl]phenyl}carbamate] | 1.58 µM | 14.9 µM
O=C(Nc1ccc(CNC(=O)c2ccc(C(F)F)nc2)cc1)OCc1ccc(Cl)cc1 [Compound 185, (4-chlorophenyl)methyl N-[4-({[6-(difluoromethyl)pyridin-3-yl]formamido}methyl)phenyl]carbamate] | 1.59 µM | 2.04 µM
Cc1ccc(Cc2ccc(NC(=O)OCc3ccncc3)cc2)cn1 [Compound 186, pyridin-4-ylmethyl (4-((6-methylpyridin-3-yl)methyl)phenyl)carbamate] | 1.61 µM | 3.38 µM
O=C(Nc1ccc(CNC(=O)c2cnco2)cc1)OCc1ccc(Cl)cc1 [Compound 187, (4-chlorophenyl)methyl N-{4-[(1,3-oxazol-5-ylformamido)methyl]phenyl}carbamate] | 1.62 µM | 11.2 µM
Cc1nn(C)c(C(=O)N(C)Cc2ccc(NC(=O)OCc3ccc(Cl)cc3)cc2)c1F [Compound 188, (4-chlorophenyl)methyl N-(4-{[1-(4-fluoro-2,5-dimethylpyrazol-3-yl)-N-methylformamido]methyl}phenyl)carbamate] | 1.62 µM | 6.85 µM
C[C@H](NC(=O)C1(C)COC1)c1ccc(NC(=O)OCc2ccc(Cl)cc2)cc1 [Compound 189, 4-chlorobenzyl (S)-(4-(1-(3-methyloxetane-3-carboxamido)ethyl)phenyl)carbamate] | 1.64 µM | 18.6 µM
Cc1noc(C(=O)N(C)Cc2ccc(NC(=O)OCc3ccc(Cl)cc3)cc2)c1C [Compound 190, (4-chlorophenyl)methyl N-(4-{[1-(3,4-dimethyl-1,2-oxazol-5-yl)-N-methylformamido]methyl}phenyl)carbamate] | 1.64 µM | 9 µM
CC(=O)N1CCN(Cc2ccc(NC(=O)OCc3ccc(Cl)cc3)cc2)CC1 [Compound 191, (4-chlorophenyl)methyl N-{4-[(4-acetylpiperazin-1-yl)methyl]phenyl}carbamate] | 1.69 µM | 21.9 µM
Cc1ncccc1C(=O)NCc1ccc(NC(=O)OCc2ccc(Cl)cc2)cc1 [Compound 192, (4-chlorophenyl)methyl N-(4-{[(2-methylpyridin-3-yl)formamido]methyl}phenyl)carbamate] | 1.70 µM | 6.45 µM
Cn1cc(C(=O)NCc2ccc(NC(=O)OCc3ccc(Cl)cc3)cc2)cn1 [Compound 193, (4-chlorophenyl)methyl N-(4-{[(1-methylpyrazol-4-yl)formamido]methyl}phenyl)carbamate] | 1.71 µM | 12.7 µM
O=C(Nc1ccc(CC(=O)N2CCN(C3COC3)CC2)cc1)OCc1ccc(Cl)cc1 [Compound 194, (4-chlorophenyl)methyl N-(4-{2-[4-(oxetan-3-yl)piperazin-1-yl]-2-oxoethyl}phenyl)carbamate] | 1.73 µM | 26.7 µM

Continued, values first:

AC1.4 Human | EC50 | SMILES
1.73 µM | 8.13 µM | COc1cc(C(=O)NCc2ccc(NC(=O)OCc3ccc(Cl)cc3)cc2)cnc1C [Compound 195, (4-chlorophenyl)methyl N-(4-{[(5-methoxy-6-methylpyridin-3-yl)formamido]methyl}phenyl)carbamate]
1.75 µM | 7.22 µM | O=C(Nc1ccc(Cc2ccncc2)cc1)OCc1ccc(C(F)F)cc1 [Compound 196, 4-(difluoromethyl)benzyl (4-(pyridin-4-ylmethyl)phenyl)carbamate]
1.75 µM | 11.8 µM | Cc1n[nH]cc1C(=O)N(C)Cc1ccc(NC(=O)OCc2ccc(Cl)cc2)cc1 [Compound 197, (4-chlorophenyl)methyl N-(4-{[N-methyl-1-(3-methyl-1H-pyrazol-4-yl)formamido]methyl}phenyl)carbamate]
1.76 µM | 8.59 µM | O=C(Nc1ccc(C2CCN(C3COC3)CC2)cc1)OCc1ccc(Cl)cc1 [Compound 198, (4-chlorophenyl)methyl N-{4-[1-(oxetan-3-yl)piperidin-4-yl]phenyl}carbamate]
1.77 µM | 5.28 µM | Cc1ccc(NC(=O)Cc2ccc(NC(=O)OCc3ccc(Cl)cc3)cc2)cn1 [Compound 199, (4-chlorophenyl)methyl N-(4-{[(6-methylpyridin-3-yl)carbamoyl]methyl}phenyl)carbamate]
1.78 µM | 2.12 µM | Cc1cc(C(=O)N[C@@H](C)c2ccc(NC(=O)OCc3ccc(Cl)cc3)cc2)on1 [Compound 200, 4-chlorobenzyl (S)-(4-(1-(3-methylisoxazole-5-carboxamido)ethyl)phenyl)carbamate]
1.78 µM | 26.4 µM | O=C(Nc1ccc(Cc2ccncc2)cc1)OCc1cncs1 [Compound 201, thiazol-5-ylmethyl (4-(pyridin-4-ylmethyl)phenyl)carbamate]
1.82 µM | 24.5 µM | O=C(Nc1ccc(CC(=O)N2CCC[C@H]2CO)cc1)OCc1ccc(Cl)cc1 [Compound 202, (4-chlorophenyl)methyl N-(4-{2-[(2S)-2-(hydroxymethyl)pyrrolidin-1-yl]-2-oxoethyl}phenyl)carbamate]
1.82 µM | 7.14 µM | Cc1nn(C)c(C(=O)NCc2ccc(NC(=O)OCc3ccc(Cl)cc3)cc2)c1F [Compound 203, (4-chlorophenyl)methyl N-(4-{[(4-fluoro-2,5-dimethylpyrazol-3-yl)formamido]methyl}phenyl)carbamate]
1.83 µM | 21.1 µM | CN1CC(=O)NC[C@@H]1c1ccc(NC(=O)OCc2ccc(C(F)F)cc2)cc1 [Compound 204, 4-(difluoromethyl)benzyl (S)-(4-(1-methyl-5-oxopiperazin-2-yl)phenyl)carbamate]
1.84 µM | 10.1 µM | Cn1nccc1C(=O)NCc1ccc(NC(=O)OCc2ccc(Cl)cc2)cc1 [Compound 205, (4-chlorophenyl)methyl N-(4-{[(2-methylpyrazol-3-yl)formamido]methyl}phenyl)carbamate]
1.85 µM | 14.7 µM | Cc1n[nH]c(C)c1C(=O)N(C)Cc1ccc(NC(=O)OCc2ccc(Cl)cc2)cc1 [Compound 206, (4-chlorophenyl)methyl N-(4-{[1-(3,5-dimethyl-1H-pyrazol-4-yl)-N-methylformamido]methyl}phenyl)carbamate]
1.85 µM | 9.34 µM | O=C(Nc1ccc(CNC(=O)c2ncccc2F)cc1)OCc1ccc(Cl)cc1 [Compound 207, (4-chlorophenyl)methyl N-(4-{[(3-fluoropyridin-2-yl)formamido]methyl}phenyl)carbamate]
1.87 µM | 17.4 µM | CCc1cc(C(=O)NCc2ccc(NC(=O)OCc3ccc(Cl)cc3)cc2)n(C)n1 [Compound 208, (4-chlorophenyl)methyl N-(4-{[(5-ethyl-2-methylpyrazol-3-yl)formamido]methyl}phenyl)carbamate]

Reference: patent publication US20240279215A1 (Cytokinetics, Incorporated, priority 2022, published 2024)
